Patent EP0199840B1, “Use of a diamine for the preparation of a softener for erythrocytes” (Barnikol, Wolfgang, Prof. Dr.Dr., priority 1985, dated 1986)

Tested on: Erythrozyten
Test: Erythrocyte filtration test: specific filtration time (FZsp) of an 8% suspension of purified erythrocytes through 5 µm polycarbonate (Nuclepore) membrane filters
Type: cell-based, gesunden Probanden
Conditions: for Wirkung auf FZsp compared with Ausführungsbeispiel 1 (result in words): carried out as in Ausführungsbeispiel 1 (0 to 100 mmol/I; 1,5 Stunden; pH=7,4; 22°C; there FZsp reduced to 30% at 50 mmol/I)
Source text: Es wurde nun gefunden, daß es, um die Erythrozyten-weichmachende Wirkung einer Substanz mit Hilfe eines Filtrationstests festzustellen, unerlässlich ist, die Erythrozyten quantitativ von den andern Blutzellen abzutrennen, weil auch sehr geringe Zellverunreinigungen den Test übermä-βig stark stören Daher wurde ein Testverfahren einschließlich eines Reinigungsverfahrens mit Hilfe der Dichtezentrifugation in synthetischem Polysaccharid (Ficoll® 400, Deutsche Pharmazia, Freiburg, Bundesrepublik Deutschland) erarbeitet; als Literaturstelle sei hingewiesen auf: Barnikol et al., Funkt, Biol. Med. 1 (1982), 242-244.
Im Prinzip wird hierbei die sogenannte spezifische Filtrierzeit (FZsp) einer 8%igen Erythrozytensuspension an 5 um Polycarbonat (Nuclepore-^@) Membran-filtern bestimmt. Das Meßverfahren wurde insofern gegenüber der ursprünglichen Vorschrift modifiziert, als nunmehr lediglich die Anfangsgeschwindigkeit gemessen wird, also je nach Dauer variable Tropfenzahlen vermessen werden, sowie der Zeitbedarf für eine bestimmte Tropfenzahl, nämlich 10, bereichnet wurde.
Es gilt die Formel [formula] wobei: • t=Filtrierzeit für 10 Tropfen der Suspension • to=Filtrierzeit für 10 Tropfen des Suspensionsmittels • FZsp ist ein Maß für die Steifigkeit.
Erthrozyten von mehreren gesunden Probanden werden wie oben angegeben (Barnikol et al., 1982) präpariert und eine 8 Vol.-%ige Zellsuspension hergestellt unter Zugabe von Glukose (100 mg/dl). Den Suspensionen werden steigende Mengen von DMAEA von 0 bis 100 mmol/I zugesetzt. Die Proben werden 1,5 Stunden unter langsamen Schwenken belassen bei pH=7,4 und 22°C und danach FZsp gemessen: Bei 50 mmol/I wird FZsp auf 30% des Ausgangswertes verringert.

SMILES	Wirkung auf FZsp compared with Ausführungsbeispiel 1 (result in words)	other results
CN(C)CCN [DMAEA, Dimethylaminoethylamin]		activity at 50000 µM (Homo sapiens, Erythrocyte, 1.5 h, pH 7.4, 50 mmol/I, 8 Vol.-%ige Zellsuspension with Glukose (100 mg/dl), 1,5 Stunden, pH=7,4, 22°C, read-out: FZsp (spezifische Filtrierzeit), % des Ausgangswertes): 30%
CC(=O)CCCCn1c(=O)c2c(ncn2C)n(C)c1=O [Pentoxifyllin, 3,7-Dimethyl-1-(5-oxohexyl)-xanthin, reference compound]		Wirkung auf FZsp (result in words) (0,1 mmol/1 to 15 mmol/I, 22°C, pH=7,40, FZsp not significantly reduced): unwirksam
CCN(CC)CCN(CC)CC [TEEDA, Tetraethylethylendiamin]	gleich Wirkung	
CN(C)CCN(C)C [TMEDA, Tetramethylethylendiamin]	gleiche Wirkung	
